7 compounds from PubChem BioAssay AID180 (DTP/NCI, 2004) can be followed below.

Where “and” joins values, the source holds several entries; their conditions need not be identical. Identical values can stand only once.

The test system of the experiment is BDF1 mice, Adenocarcinoma 755 s.c., tumor weight T/C. Nature of the experiment: NCI In Vivo Anticancer Drug Screen. Data for tumor model Adenocarcinoma 755 (subcutaneous) in B6D2F1 (BDF1) mice. The note with it: endpoint: mean tumor weight, schedule: Q01DX011 (ip), higher = larger tumour. A digest of the protocol:
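Values express treated (T) relative to vehicle-dosed control (C) animals, based on survival or tumour size measured after compound treatment of mice bearing a transplanted tumour.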

[1] abbreviates: dose: 25.0 mg/kg/injection, vehicle: carboxymethylcellulose (CMC).

As to `COc1ccc(C[C@H](N)C(=O)NC2C(CO)OC(n3cnc4c(N(C)C)ncnc43)C2O)cc1` (stereo not given in full), the T/C (as a rule, the result in the treated group divided by that in the control group, in per cent) was 104 % of control (dose: 9.94 mg/kg/injection, vehicle: carboxymethylcellulose (CMC)); 119 % of control (dose: 13.25 mg/kg/injection, vehicle: carboxymethylcellulose (CMC)); 73 % of control (dose: 17.06 mg/kg/injection, vehicle: carboxymethylcellulose (CMC)); 174 % of control (dose: 19.88 mg/kg/injection, vehicle: carboxymethylcellulose (CMC)); 67 % of control (dose: 23.0 mg/kg/injection, vehicle: carboxymethylcellulose (CMC)); 70 % of control (dose: 26.5 mg/kg/injection, vehicle: carboxymethylcellulose (CMC)). The T/C (dose: 31.8 mg/kg/injection, vehicle: carboxymethylcellulose (CMC)) is 47 % of control and 48 % of control; the T/C (dose: 34.13 mg/kg/injection, vehicle: carboxymethylcellulose (CMC)) was 57 % of control; the T/C (dose: 45.0 mg/kg/injection, vehicle: carboxymethylcellulose (CMC)) is 70 % of control; the T/C (dose: 68.25 mg/kg/injection, vehicle: carboxymethylcellulose (CMC)) is 50 % of control; the T/C (dose: 79.5 mg/kg/injection, vehicle: carboxymethylcellulose (CMC)) was 14 % of control; the T/C (dose: 90.0 mg/kg/injection, vehicle: carboxymethylcellulose (CMC)) is 51 % of control.
`COc1cc(-c2ccc(N=Nc3ccc4c(S(=O)(=O)O)cc(S(=O)(=O)O)c(N)c4c3O)c(OC)c2)ccc1N=Nc1ccc2c(S(=O)(=O)O)cc(S(=O)(=O)O)c(N)c2c1O`: the T/C runs as follows: (dose: 1.0 mg/kg/injection, vehicle: carboxymethylcellulose (CMC)) 74 % of control; (dose: 2.0 mg/kg/injection, vehicle: carboxymethylcellulose (CMC)) 38 % of control; (dose: 4.0 mg/kg/injection, vehicle: carboxymethylcellulose (CMC)) 44 % of control; (dose: 8.0 mg/kg/injection, vehicle: carboxymethylcellulose (CMC)) 31 % of control and 43 % of control.
On to `COC1=NC2=NCCN2C(OC)=N1`, for which the T/C by setting is: (dose: 25.0 mg/kg/injection, vehicle: saline) 94 % of control; (dose: 75.0 mg/kg/injection, vehicle: saline) 69 % of control; (dose: 225.0 mg/kg/injection, vehicle: saline) 54 % of control.
Turning to `Cc1c2ccccc2c(C)c2c1ccc1ccccc12`, the T/C is 63 % of control (dose: 9.0 mg/kg/injection, vehicle: carboxymethylcellulose (CMC)); 54 % of control (dose: 19.0 mg/kg/injection, vehicle: carboxymethylcellulose (CMC)); 51 % of control (dose: 38.0 mg/kg/injection, vehicle: carboxymethylcellulose (CMC)).
As to `Nc1ccc2ccccc2c1N=Nc1ccccc1`, the T/C is, setting by setting: under setting [1], 68 % of control; (dose: 50.0 mg/kg/injection, vehicle: carboxymethylcellulose (CMC)) 27 % of control; (dose: 100.0 mg/kg/injection, vehicle: carboxymethylcellulose (CMC)) 34 % of control; (dose: 200.0 mg/kg/injection, vehicle: carboxymethylcellulose (CMC)) 25 % of control.
As for `CN(C)c1nc(S(=O)(=O)N(C)C)nc2nc[nH]c12`, the T/C was 115 % of control under setting [1]; 117 % of control (dose: 75.0 mg/kg/injection, vehicle: carboxymethylcellulose (CMC)); 95 % of control (dose: 225.0 mg/kg/injection, vehicle: carboxymethylcellulose (CMC)).
Turning to `CCOP(=O)(OCC)OCC1OC(n2cnc3c(=S)nc[nH]c32)C(O)C1O` (stereo not given), the T/C was 50 % of control (dose: 4.0 mg/kg/injection, vehicle: methylcellulose (MC)); 49 % of control (dose: 8.0 mg/kg/injection, vehicle: methylcellulose (MC)); 56 % of control (dose: 16.0 mg/kg/injection, vehicle: methylcellulose (MC)); 33 % of control (dose: 31.0 mg/kg/injection, vehicle: methylcellulose (MC)); 46 % of control (dose: 62.0 mg/kg/injection, vehicle: methylcellulose (MC)); 7 % of control (dose: 125.0 mg/kg/injection, vehicle: methylcellulose (MC)).
